Source: US20260224538A1 (Purdue Research Foundation, priority 2023, published 2026)

Assays:
[1] = biological target: T1, transthyretin fragment peptide (TTR81-127) (Homo sapiens, UniProt P02766); test: ThT fluorescence assay of TTR81-127 fibril formation; assay type: biochemical; conditions: compounds at 100 μM, TTR81-127 10 μM, control 0.25% DMSO
T1 construct: TTR fragment 81-127 was obtained from AnaSpec; purchased AnaSpec; host or cells: synthetic peptide
Procedure: Thioflavin-T (ThT) fluorescence assays. Thioflavin-T (ThT) fluorescence assays were used to monitor fibril formation of recombinant Ap (fragments 1-40 and 1-42), recombinant α-syn, recombinant tau isoform 2N4R, synthetic IAPP, and synthetic TTR peptides treated with BTA and its derivatives. The IAPP ThT assay was performed in 10 mM PBS (pH 7.4) at a final concentration of 10 μM for both IAPP and ThT as published previously. Aβ fragments 1-40 and 1-42 were tested at 7 μM in 10 mM of PBS using ThT at a final concentration of 20 μM. Kinetics of α-syn fibrillization were performed as published previously.^36-37 TTR fragment kinetics of fibril formation were assessed at 10 μM in 100 mM sodium acetate buffer supplemented with 100 mM KCl and 1 mM ethylenediaminetetraacetic acid (EDTA) (pH 4) with 20 μM ThT. The fluorescence emission experiments were performed with the excitation and emission wavelengths set at 440 and 485 nm, respectively, with a Synergy HT multi-mode microplate reader (BioTek, Winooski, VT). Samples were measured in three replicates, and the experiments were repeated three times using at least two different stock solutions. For each time point, arbitrary units of fluorescence were calculated from the mean values normalized against the maximum value in each completed assay. The lag time for each condition was calculated as previously described. All results contained in histograms were presented as mean±SEM. Data were analyzed by the one-way analysis of variance with Dunnett's multiple comparisons between controls and compounds. Differences were considered statistically significant at p<0.05.

tau isoform 2N4R = biological target: T2, tau isoform 2N4R (Homo sapiens, UniProt P10636); test: ThT kinetics of tau isoform 2N4R fibril formation; assay type: biochemical
T2 construct: made in house; host or cells: E. coli BL21(DE3)
T2 sequence (P10636 1-441 isoform P10636-8): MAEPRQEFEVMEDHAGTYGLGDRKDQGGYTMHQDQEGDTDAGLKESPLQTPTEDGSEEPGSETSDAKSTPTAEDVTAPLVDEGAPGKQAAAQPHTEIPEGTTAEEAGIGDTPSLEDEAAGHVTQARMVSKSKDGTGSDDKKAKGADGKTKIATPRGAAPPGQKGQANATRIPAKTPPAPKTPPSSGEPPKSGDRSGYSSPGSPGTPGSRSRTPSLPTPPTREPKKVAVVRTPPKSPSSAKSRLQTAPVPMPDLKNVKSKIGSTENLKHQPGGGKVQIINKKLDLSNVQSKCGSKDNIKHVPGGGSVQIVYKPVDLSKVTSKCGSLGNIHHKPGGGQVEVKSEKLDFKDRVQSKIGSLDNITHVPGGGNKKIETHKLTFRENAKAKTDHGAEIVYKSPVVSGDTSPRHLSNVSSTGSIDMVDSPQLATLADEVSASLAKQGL
Procedure: The bacterial expression plasmid consisting of the vector pRK172 carrying a cDNA encoding the human Tau 2N4R isoform was obtained from Dr. David Eliezer (Weill Cornell Medicine, New York, NJ). For protein expression, E. coli BL21(DE3) cells were transformed with the plasmid and grown in LB media supplemented with ampicillin (100 μg/mL). Protein over-expression was induced by the addition of 1 mM IPTG for 4 hours at 37° C., and cells were pelleted by centrifugation at 6,000 g for 15 minutes at 4° C. The cells were resuspended in lysis buffer (20 mM MES, 400 mM NaCl, 0.2 mM MgCl2, 1 mM EGTA, protease inhibitor cocktail (P8340, Sigma Aldrich), 0.25 mg/mL lysozyme, and 1 μg/mL DNase 1, pH 6.8) and lysed by a French press cell disruptor at 4° C., after which the lysate was boiled for 20 minutes. Denatured proteins were pelleted by centrifugation at 30,000 g for 30 minutes at 4° C., and the supernatant was dialyzed overnight against cation exchange buffer (20 mM MES, 50 mM NaCl, 1 mM MgCl2, 1 mM EGTA, 2 mM DTT, 0.1 mM PMSF, pH 6.8). The dialysate was loaded onto a HiPrep SP HP column, and proteins were eluted with a linear gradient ranging from 50 mM to 1 M NaCl. Fractions containing tau isoform 2N4R were pooled, and the resulting protein solution was dialyzed against PBS (pH 7.4) and stored at −80° C.
Compounds with the highest anti-fibrillary activity were tested at 3.125, 6.25, 12.5, 25, 50, and 100 μM to obtain dose-response curves with prepared α-syn and 2N4R tau at 6.25 μM and 6 μM, respectively. Compounds were tested with α-syn using a previously published procedure. Concerning the tau (isoform 2N4R) kinetics of fibril formation, measurements of ThT fluorescence were performed with a solution of the protein diluted to a final concentration of 6 μM in PBS (pH 7.4) supplemented with 1.5 μM heparin, 20 μM ThT, 2.5 mM DTT, and 100 μM compound. Aliquots of the diluted protein solution (100 μL each) were pipetted into the wells of a 96-well plate, and a Teflon ball was added to each well. The plate was incubated at 37° C. with constant shaking at 1,000 rpm in a Tecan Spark plate reader. ThT fluorescence was measured every 15 minutes with excitation and emission wavelengths of 440 nm and 480 nm, and the data were plotted using GraphPad Prism.

For `Nc1nsc2ccc([N+](=O)[O-])cc12` [A, 5-nitro-1,2-benzothiazol-3-amine], the “ThT TTR81-127 (%), maximum thioflavin T (ThT) intensity in percentage” value [1] was 54.7 ± 1.4%, the remaining activity at 100 µM ([1]; read-out: ThT TTR81-127 (%), maximum thioflavin T (ThT) intensity in percentage) was 54.7 ± 1.4% and the “tau isoform 2N4R fibrillization (ThT), dose response” value (tau isoform 2N4R; 3.125-100 μM, at 15 hours) was “protein fibrillization was reduced”. For the same compound, the “lag time of tau isoform 2N4R fibril formation” value (tau isoform 2N4R; tau 6 μM, compound 100 μM) was “delayed the lag time” and the “production of tau isoform 2N4R fibrils (ThT kinetic aggregation curves)” value (tau isoform 2N4R; tau 6 μM, compound 100 μM) was “demonstrating the best anti-fibrillary activity”.
